Measurements: article PMC11096083 (Cancer research, 2024)

Tests used:
HSD3B7 [1] = molecular target: T1, HSD3B7 (Homo sapiens, UniProt Q9H2F3); assay: recombinant HSD3B7 activity by NAD+ reduction to NADH; type: biochemical
T1 sequence (Q9H2F3 1-369): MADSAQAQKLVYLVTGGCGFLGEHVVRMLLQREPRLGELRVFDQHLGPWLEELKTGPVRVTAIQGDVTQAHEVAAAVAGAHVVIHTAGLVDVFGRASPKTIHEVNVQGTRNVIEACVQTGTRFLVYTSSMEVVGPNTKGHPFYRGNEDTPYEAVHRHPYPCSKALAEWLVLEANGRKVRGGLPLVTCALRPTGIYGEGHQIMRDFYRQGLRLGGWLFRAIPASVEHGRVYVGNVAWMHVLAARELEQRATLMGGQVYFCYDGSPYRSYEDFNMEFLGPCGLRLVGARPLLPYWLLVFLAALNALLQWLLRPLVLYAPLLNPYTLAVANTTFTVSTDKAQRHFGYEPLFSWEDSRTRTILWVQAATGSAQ

HSD3B7 [2] = molecular target: T1, HSD3B7; assay: recombinant HSD3B7 NAD; type: biochemical

## NC(=O)c1ccc[n+]([C@@H]2O[C@H](COP(=O)([O-])OP(=O)(O)OC[C@H]3O[C@@H](n4cnc5c(N)ncnc54)[C@H](O)[C@@H]3O)[C@@H](O)[C@H]2O)c1 [NAD+]
HSD3B7 [1]
  recombinant HSD3B7 activity by NAD+ reduction to NADH (fluorescence): recombinant human HSD3B7 protein, whose enzymatic activity was assessed by monitoring fluorescence induced by NAD^+ reduction to NADH

## CC1=C(O)C(=O)C=C2C1=CC=C1[C@@]2(C)CC[C@@]2(C)[C@@H]3C[C@](C)(C(=O)O)CC[C@]3(C)CC[C@]12C [celastrol]
HSD3B7 [2]
  IC50: low micromolar

## COc1ccc(-c2cc(=O)c3c(O)cc(O)c(-c4cc(-c5cc(=O)c6c(O)cc(O)cc6o5)ccc4OC)c3o2)cc1 [isoginkgetin]
HSD3B7 [2]
  IC50: low micromolar
